Measured values published in US20240262848A1, “HETEROCYCLIC COMPOUNDS, COMPOSITIONS THEREOF, AND METHODS OF TREATMENT THEREWITH” (BeiGene, Ltd., priority 2022, published 2024).

Columns and labels:
[1] = biological target: GST-tagged GDP-loaded KRAS G12V (amino acids 1-169) (Homo sapiens, UniProt P01116, G12V); experiment: KRAS G12V probe displacement assay (TR-FRET); type: binding; settings: Table 4; KRAS G12V 2 nM, biotinylated probe 2 2.5 nM
Experimental: Plates are incubated at 24 °C for 1 hr. […] After 1 hr incubation at 24° C.

[2] = test system: pERK1/2(THR202/TYR204) level in SW620 cell line; experiment: KRAS G12V pERK assay in SW620 cells (HTRF); type: cell-based
Procedure, shortened: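 SW620 cells were treated for 2 h with a 10-point dilution series (final 0–10 μM) after overnight seeding. Lysates were then incubated overnight at room temperature with Eu3+-cryptate and acceptor anti-phospho-ERK1/2 antibodies, and HTRF was read at 655 nm. IC50 was fitted from percent inhibition versus log concentration.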

[3] = biological target: GST-tagged GDP-loaded KRAS G12D (amin acids 1-188) (Homo sapiens, UniProt P01116, G12D); experiment: KRAS G12D probe displacement assay (TR-FRET); type: binding; settings: Table 5; KRAS G12D 0.5 nM, biotinylated probe 2 4 nM
Experimental: Plates are incubated at 24° C. for 1 hr.

[4] = test system: pERK1/2(THR202/TYR204) level in AsPC-1 cell line; experiment: KRAS G12D pERK assay in AsPC-1 cells (HTRF); type: cell-based
Experimental: AsPC-1 cell line was used in this study. Cells were maintained in RPMI-1640 supplemented with 10% fetal bovine serum (Thermo Fisher), 50 units/ml, penicillin and streptomycin (Thermo Fisher) and kept at 37° C. in a humidified atmosphere of 5% CO2 in air. Cells were reinstated from frozen stocks that were laid down within 30 passages from the original cells purchased. 30000 cells per well were seeded into a 96-well plate and incubated overnight. Cells were treated with a 10-point dilution series. The final compound concentration is from 0 to 10 μM. After 2 h compound treatment, cells were lysed, and the pERK1/2(THR202/TYR204) level in the cell lysates was detected by HTRF kit (Cisbio). In brief, a total of 16 μL of cell lysate from each well of a 96-well plate was transferred to a 384-well white assay plate. Lysate from each well was incubated with 2 μL of Eu3+-cryptate (donor) labeled anti-phospho-ERK1/2 and 2 μL of D2 (acceptor) labeled anti-phospho-ERK1/2 antibodies (Cisbio) overnight in dark at room temperature. When the donor and acceptor are in close proximity, excitation of the donor with laser triggers a Fluorescence Resonance Energy Transfer (FRET) towards the acceptor, which in turn fluoresces at 655 nm wavelength. FRET signals were measured using a PHERAstar FSX reader (BMG Labtech). IC50 determination was performed by fitting the curve of percent inhibition versus the log of the inhibitor concentration using Dotmatics.

[5] = Homo sapiens, SW-620, Table 4, 2 hrs compound treatment
[6] = Homo sapiens, ASPC1, Table 5, 2 h compound treatment

GST-tagged GDP-loaded KRAS G12V (amino acids 1-169), sequence (P01116 1-169 isoform P01116-2 G12V): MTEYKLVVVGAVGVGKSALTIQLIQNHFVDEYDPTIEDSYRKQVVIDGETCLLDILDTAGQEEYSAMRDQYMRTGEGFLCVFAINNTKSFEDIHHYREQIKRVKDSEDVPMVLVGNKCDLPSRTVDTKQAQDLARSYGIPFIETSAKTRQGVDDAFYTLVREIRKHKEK
GST-tagged GDP-loaded KRAS G12D (amin acids 1-188), sequence (P01116 1-188 isoform P01116-2 G12D): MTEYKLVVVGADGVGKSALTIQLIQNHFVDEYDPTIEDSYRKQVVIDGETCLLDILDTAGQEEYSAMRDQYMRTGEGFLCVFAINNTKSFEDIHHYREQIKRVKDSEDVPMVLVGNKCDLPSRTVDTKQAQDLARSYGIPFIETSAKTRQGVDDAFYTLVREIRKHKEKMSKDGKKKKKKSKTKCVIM

Structure (SMILES) | IC50 [1] [nM] | IC50 [2, 5] [nM] | IC50 [3] [nM] | IC50 [4, 6] [nM] | IC50 ([2]; Table 4, 2 hrs compound treatment) [nM] | IC50 ([4]; Table 5, 2 h compound treatment) [nM]
CN1c2nc(OC[C@@]34CCCN3C[C@H](F)C4)nc3c(F)c(-c4cc(N)cc(Cl)c4C(F)(F)F)nc(c23)OC[C@@H]2COC[C@H]21 (single isomer, unassigned) [Example 68 Isomer 2] | 0.51 | 1.4 | 0.14 | 6.9 | – | –
CN1CCCOc2cc(-c3ccc(F)c4sc(N)c(C#N)c34)c(F)c3nc(OC[C@@]45CCCN4C[C@H](F)C5)nc1c23 [Example 2, 2-amino-7-fluoro-4-(11-fluoro-2-(((2R,7aS)-2-fluorotetrahydro-1H-pyrrolizin-7a(5H)-yl)methoxy)-4-methyl-4.5,6,7-tetrahydro-[1,5]oxazocino[4,3,2-de]quinazolin-10-yl)benzo[b]thiophene-3-carbonitrile] | 3.6 | 255 | 6.2 | 594 | – | –
C#Cc1c(F)ccc2cc(O)cc(-c3nc4c5c(nc(OC[C@@]67CCCN6C[C@H](F)C7)nc5c3F)N(C)CCCO4)c12 [Example 10, 5-ethynyl-6-fluoro-4-(4-fluoro-2-(((2R,7aS)-2-fluorotetrahydro-1H-pyrrolizin-7a(5H)-yl)methoxy)-11-methyl-8,9,10,11-tetrahydro-7-oxa-1,3,6,11-tetraazacycloocta[de]naphthalen-5-yl)naphthalen-2-ol] | 1.4 | 103 | 1.1 | 123 | – | –
CN1c2nc(OC[C@@]34CCCN3C[C@H](F)C4)nc3c(F)c(-c4cc(N)cc(Cl)c4C(F)(F)F)nc(c23)OCCC12COC2 [Example 30, 3-chloro-5-(4-fluoro-2-(((2R,7aS)-2-fluorotetrahydro-1H-pyrrolizin-7a(5H)-yl)methoxy)-11-methyl-8,9-dihydro-11H-7-oxa-1,3,6,11-tetraazaspiro[cycloocta[de]naphthalene-10,3′-oxetan]-1(11a), 2,3a, 3a^1(6a), 5-pentaen-5-yl)-4-(trifluoromethyl)aniline] | 0.63 | – | 0.31 | – | 13 | 11
CN1c2nc(OC[C@@]34CCCN3C[C@H](F)C4)nc3c(F)c(-c4cc(N)cc(Cl)c4C(F)(F)F)nc(c23)OCCC12CC2 [Example 31, 3-chloro-5-(4-fluoro-2-(((2R,7aS)-2-fluorotetrahydro-1H-pyrrolizin-7a(5H)-yl)methoxy)-11-methyl-8,9-dihydro-11H-7-oxa-1,3,6,11-tetraazaspiro[cycloocta[de]naphthalene-10,1′-cyclopropan]-1(11a), 2,3a, 4,6-pentaen-5-yl)-4 (trifluoromethyl)aniline] | 0.51 | 32 | 0.43 | 40 | – | –
C[C@@H]1C[C@H](C)Oc2nc(-c3cc(N)cc(Cl)c3C(F)(F)F)c(F)c3nc(OC[C@@]45CCCN4C[C@H](F)C5)nc(c23)N1C [Example 34, 3-chloro-5-((8S,10R)-4-fluoro-2-(((2R,7aS)-2-fluorotetrahydro-1H-pyrrolizin-7a(5H)-yl)methoxy)-8,10,11-trimethyl-8,9,10,11-tetrahydro-7-oxa-1,3,6,11-tetraazacycloocta[de]naphthalen-5-yl)-4-(trifluoromethyl)aniline] | 0.59 | 13 | 0.59 | 25 | – | –
CCN1c2nc(OC[C@@]34CCCN3C[C@H](F)C4)nc3c(F)c(-c4cc(N)cc(Cl)c4C(F)(F)F)nc(c23)OCCC12COC2 [Example 35, 3-chloro-5-(11-ethyl-4-fluoro-2-(((2R,7aS)-2-fluorotetrahydro-1H-pyrrolizin-7a(5H)-yl)methoxy)-8,9-dihydro-11H-7-oxa-1,3,6,11-tetraazaspiro[cycloocta[de]naphthalene-10,3′-oxetan]-1(11a), 2,3a, 3a^1(6a), 5-pentaen-5-yl)-4-(trifluoromethyl)aniline] | 0.47 | 26 | 0.33 | 22 | – | –
CNCC(C)N1c2nc(OC[C@@]34CCCN3C[C@H](F)C4)nc3c(F)c(-c4cc(N)cc(Cl)c4C(F)(F)F)nc(c23)OCC12CCC2 (stereo partly drawn) [Example 38, 3-chloro-5-(4′-fluoro-2′-(((2R,7aS)-2-fluorotetrahydro-1H-pyrrolizin-7a(5H)-yl)methoxy)-10′-(1-(methylamino)propan-2-yl)-8′H, 10′H-7′-oxa-1′,3′,6′,10′-tetraazaspiro[cyclobutane-1,9′-cyclohepta[de]naphthalen]-1′(10a′), 2′,3a′, 3 al′(6a′), 5′-pentaen-5′-yl)-4-(trifluoromethyl)aniline] | – | – | 0.38 | 102 | – | –
CNCC(C)N1CCCOc2nc(-c3cc(N)cc(Cl)c3C(F)(F)F)c(F)c3nc(OC[C@@]45CCCN4C[C@H](F)C5)nc1c23 (stereo partly drawn) [Example 39, 3-chloro-5-(4-fluoro-2-(((2R,7aS)-2-fluorotetrahydro-1H-pyrrolizin-7a(5H)-yl)methoxy)-11-(1-(methylamino)propan-2-yl)-8,9,10,11-tetrahydro-7-oxa-1,3,6,11-tetraazacycloocta[de]naphthalen-5-yl)-4-(trifluoromethyl)aniline] | – | – | 3.9 | 1780 | – | –
CC(CN(C)C)N1CCCOc2nc(-c3cc(N)cc(Cl)c3C(F)(F)F)c(F)c3nc(OC[C@@]45CCCN4C[C@H](F)C5)nc1c23 (stereo partly drawn) [Example 40, 3-chloro-5-(11-(1-(dimethylamino)propan-2-yl)-4-fluoro-2-(((2R,7aS)-2-fluorotetrahydro-1H-pyrrolizin-7a(5H)-yl)methoxy)-8,9,10,11-tetrahydro-7-oxa-1,3,6,11-tetraazacycloocta[de]naphthalen-5-yl)-4-(trifluoromethyl)aniline] | – | – | 7.6 | 2000 | – | –
CNCCN1c2nc(OC[C@@]34CCCN3C[C@H](F)C4)nc3c(F)c(-c4cc(N)cc(Cl)c4C(F)(F)F)nc(c23)OCCC12CC2 [Example 42, 3-chloro-5-(4-fluoro-2-(((2R,7aS)-2-fluorotetrahydro-1H-pyrrolizin-7a(5H)-yl)methoxy)-11-(2-(methylamino)ethyl)-8,9-dihydro-11H-7-oxa-1,3,6,11-tetraazaspiro[cycloocta[de]naphthalene-10,1′-cyclopropan]-1(11a), 2,3a, 4,6-pentaen-5-yl)-4-(trifluoromethyl)aniline] | – | – | 0.17 | 141 | – | –
CN(C)CCN1c2nc(OC[C@@]34CCCN3C[C@H](F)C4)nc3c(F)c(-c4cc(N)cc(Cl)c4C(F)(F)F)nc(c23)OCCC12CC2 [Example 43, 3-chloro-5-(11-(2-(dimethylamino)ethyl)-4-fluoro-2-(((2R,7aS)-2-fluorotetrahydro-1H-pyrrolizin-7a(5H)-yl)methoxy)-8,9-dihydro-11H-7-oxa-1,3,6,11-tetraazaspiro[cycloocta[de]naphthalene-10,1′-cyclopropan]-1(11a), 2,3a, 4,6-pentaen-5-yl)-4-(trifluoromethyl)aniline] | – | – | 0.73 | 92 | – | –
CN(C)CCN1c2nc(OC[C@@]34CCCN3C[C@H](F)C4)nc3c(F)c(-c4cc(N)cc(Cl)c4C(F)(F)F)nc(c23)OCCC12COC2 [Example 44, 3-chloro-5-(11-(2-(dimethylamino)ethyl)-4-fluoro-2-(((2R,7aS)-2-fluorotetrahydro-1H-pyrrolizin-7a(5H)-yl)methoxy)-8,9-dihydro-11H-7-oxa-1,3,6,11-tetraazaspiro[cycloocta[de]naphthalene-10,3′-oxetan]-1(11a), 2,3a, 4,6-pentaen-5-yl)-4-(trifluoromethyl)aniline] | – | – | 0.65 | 184 | – | –
CNCCN1c2nc(OC[C@@]34CCCN3C[C@H](F)C4)nc3c(F)c(-c4cc(N)cc(Cl)c4C(F)(F)F)nc(c23)O[C@H]2CCCC[C@@H]21 [Example 48, 3-chloro-5-((7aS,11aS)-4-fluoro-2-(((2R,7aS)-2-fluorotetrahydro-1H-pyrrolizin-7a(5H)-yl)methoxy)-12-(2-(methylamino)ethyl)-7a, 8,10,11,11a, 12-hexahydro-9H-7-oxa-1,3,6,12-tetraazapleiaden-5-yl)-4-(trifluoromethyl)aniline] | – | – | 20 | 3380 | – | –
CN1c2nc(OC[C@@]34CCCN3C[C@H](F)C4)nc3c(F)c(-c4cc(N)cc(Cl)c4C(F)(F)F)nc(c23)O[C@H]2COCC[C@@H]21 [Example 49, 3-chloro-5-((7aR,11aS)-4-fluoro-2-(((2R,7aS)-2-fluorotetrahydro-1H-pyrrolizin-7a(5H)-yl)methoxy)-12-methyl-7a, 8,10,11,11a, 12-hexahydro-7,9-dioxa-1,3,6,12-tetraazapleiaden-5-yl)-4-(trifluoromethyl)aniline] | 0.54 | 8.4 | 0.27 | 7.6 | – | –
